Measurements taken from US10676485B2, “Macrocyclic MCL-1 inhibitors and methods of use” (AbbVie Inc., priority 2017, dated 2020).
Like-named read-outs stand apart in the source and are kept apart here.

Columns and labels:
GST-MCL-1 = GST-MCL-1 (Homo sapiens (Human), UniProt Q07820); assay: TR-FRET MCL-1 binding assay (competition with probe F-Bak)
Method in brief: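 Compounds as 11 three-fold dilutions from 25 μM with GST-MCL-1, F-Bak probe and Tb-anti-His antibody, 2 h at room temperature. TR-FRET at 340 nm excitation, 520/525 nm (F-Bak) and 495/510 nm (Tb) emission. Run without human serum and with 10% HS.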

[1] = test system: AMO-1 human multiple myeloma tumor cell line; assay: AMO-1 cell viability assay (CellTiter-Glo); assay type: cell-based; settings: AMO1, read-out: AMO-1 Viability IC50 (μM), 10% FBS, 24 hours of compound treatment
Experimental: In one exemplary set of conditions, NCI-H929 or AMO-1 (ATCC. Manassas, Va.) were plated 4.000 cells per well in 384-well tissue culture plates (Corning. Corning, N.Y.) in a total volume of 25 μL RPMI tissue culture medium supplemented with 10% fetal bovine serum (Sigma-Aldrich, St. Louis, Mo.) and treated with a 3-fold serial dilution of the compounds of interest with a Labcyte Echo from a final concentration of 10 μM to 0.0005 μM. Each concentration was tested in duplicate at least 3 independent times. A luminescent signal proportional to the number of viable cells following 24 hours of compound treatment was determined using the CellTiter-Glo® Luminescent Cell Viability Assay according to the manufacturer's recommendations (Promega Corp., Madison, Wis.). The plates were read in a Perkin Elmer Envision using a Luminescence protocol. To generate dose response curves the data is normalized to percent viability by setting the averages of the staurosporine (10 uM) and DMSO only control wells to 0% and (00)% viability respectively. The IC50 values for the compounds are generated by fitting the normalized data with Accelrys Assay Explorer 3.3 to a sigmoidal curve model using linear regression.

[2] = test system: NCI-H929 human multiple myeloma tumor cell line; assay: NCI-H929 cell viability assay (CellTiter-Glo); assay type: cell-based; settings: NCI-H929, read-out: H929 Viability IC50 (μM), 10% FBS, 24 hours of compound treatment
[3] = read-out: MCL-1 Binding Ki (nM, 10% HS), in the presence of 10% HS
[4] = without HS, read-out: MCL-1 Binding Ki

Chain of GST-MCL-1 (Q07820 whole entry): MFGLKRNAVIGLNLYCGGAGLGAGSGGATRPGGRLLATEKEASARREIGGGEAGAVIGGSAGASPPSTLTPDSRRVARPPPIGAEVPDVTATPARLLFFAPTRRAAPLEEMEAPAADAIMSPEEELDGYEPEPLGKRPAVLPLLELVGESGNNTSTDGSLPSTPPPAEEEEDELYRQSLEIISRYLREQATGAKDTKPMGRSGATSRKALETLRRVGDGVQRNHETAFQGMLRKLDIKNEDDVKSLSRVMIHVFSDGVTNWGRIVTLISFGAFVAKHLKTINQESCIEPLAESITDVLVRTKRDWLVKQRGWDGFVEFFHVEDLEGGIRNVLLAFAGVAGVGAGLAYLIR

Row | Compound | Ki (GST-MCL-1; [3]) [nM] | Ki (GST-MCL-1; [4]) [nM] | IC50 [1] [µM] | IC50 [2] [µM]
1 | Cc1c(Cl)c2c(Cl)c(C)c1-c1c(C3=CCCC3)sc3ncnc(c13)O[C@@H](C(=O)O)Cc1cc(ccc1OCc1ccnc(C3=CC[C@@](F)(COC[C@H]4COCCO4)CC3)n1)OC[C@@H](CN1CCN(C)CC1)O2 [Example 48, (7R,16R)-19,23-dichloro-1-(cyclopent-1-en-1-yl)-10-({2-[(4R)-4-({[(2R)-1,4-dioxan-2-yl]methoxy}methyl)-4-fluorocyclohex-1-en-1-yl]pyrimidin-4-yl}methoxy)-20,22-dimethyl-16-[(4-methylpiperazin-1-yl)methyl]-7,8,15,16-tetrahydro-18,21-etheno-13,9-(metheno)-6,14,17-trioxa-2-thia-3,5-diazacyclononadeca[1,2,3-cd]indene-7-carboxylic acid] | 0.648 | 0.026 | 0.000641 | 0.000593
2 | Cc1c(Cl)c2c(Cl)c(C)c1-c1c(-c3ccc(F)cc3)sc3ncnc(c13)O[C@@H](C(=O)O)Cc1cc(ccc1OCc1ccnc([C@H]3CC[C@@H](COC[C@H]4COCCO4)CC3)n1)OC[C@@H](CN1CCN(C)CC1)O2 [Example 50, (7R,16R)-19,23-dichloro-10-({2-[(1S,4s)-4-({[(2S)-1,4-dioxan-2-yl]methoxy}methyl)cyclohexyl]pyrimidin-4-yl}methoxy)-1-(4-fluorophenyl)-20,22-dimethyl-16-[(4-methylpiperazin-1-yl)methyl]-7,8,15,16-tetrahydro-18,21-etheno-13,9-(metheno)-6,14,17-trioxa-2-thia-3,5-diazacyclononadeca[1,2,3-cd]indene-7-carboxylic acid] | 0.249 | 0.022 | 0.000249 | 0.000255
3 | Cc1c(Cl)c2c(Cl)c(C)c1-c1c(-c3ccc(F)cc3)sc3ncnc(c13)O[C@@H](C(=O)O)Cc1cc(ccc1OCc1ccnc(N3CCN(S(=O)(=O)CC4COCCO4)CC3)n1)OC[C@@H](CN1CCN(C)CC1)O2 (stereo partly drawn) [Example 26, (7R,16R)-19,23-dichloro-10-[(2-{4-[(1,4-dioxan-2-yl)methanesulfonyl]piperazin-1-yl}pyrimidin-4-yl)methoxy]-1-(4-fluorophenyl)-20,22-dimethyl-16-[(4-methylpiperazin-1-yl)methyl]-7,8,15,16-tetrahydro-18,21-etheno-13,9-(metheno)-6,14,17-trioxa-2-thia-3,5-diazacyclononadeca[1,2,3-cd]indene-7-carboxylic acid] | 1 | 0.104 | 0.0002 | 0.000241
4 | Cc1c(Cl)c2c(Cl)c(C)c1-c1c(-c3ccc(F)cc3)sc3ncnc(c13)O[C@@H](C(=O)O)Cc1cc(ccc1OCc1ccnc([C@H]3CC[C@](F)(COC[C@H]4COCCO4)CC3)n1)OC[C@@H](CN1CCN(C)CC1)O2 [Example 39, (7R,16R)-19,23-dichloro-10-({2-[(1S,4s)-4-({[(2R)-1,4-dioxan-2-yl]methoxy}methyl)-4-fluorocyclohexyl]pyrimidin-4-yl}methoxy)-1-(4-fluorophenyl)-20,22-dimethyl-16-[(4-methylpiperazin-1-yl)methyl]-7,8,15,16-tetrahydro-18,21-etheno-13,9-(metheno)-6,14,17-trioxa-2-thia-3,5-diazacyclononadeca[1,2,3-cd]indene-7-carboxylic acid] | 0.06 | 0.004 | 0.000235 | 0.000239
5 | Cc1c(Cl)c2c(Cl)c(C)c1-c1c(C3=CCCC3)sc3ncnc(c13)O[C@@H](C(=O)O)Cc1cc(ccc1OCc1ccnc([C@H]3CC[C@H](OCC4COCCO4)CC3)n1)OC[C@@H](CN1CCN(C)CC1)O2 (stereo partly drawn) [Example 32, (7R,16R)-19,23-dichloro-1-(cyclopent-1-en-1-yl)-10-[(2-{(1r,4r)-4-[(1,4-dioxan-2-yl)methoxy]cyclohexyl}pyrimidin-4-yl)methoxy]-20,22-dimethyl-16-[(4-methylpiperazin-1-yl)methyl]-7,8,15,16-tetrahydro-18,21-etheno-13,9-(metheno)-6,14,17-trioxa-2-thia-3,5-diazacyclononadeca[1,2,3-cd]indene-7-carboxylic acid] | 0.27 | 0.022 | 0.00017 | 0.000296
6 | Cc1c(Cl)c2c(Cl)c(C)c1-c1c(-c3ccc(F)cc3)sc3ncnc(c13)O[C@@H](C(=O)O)Cc1cc(ccc1OCc1ccnc(C3=CC[C@](F)(COC[C@@H]4COCCO4)CC3)n1)OC[C@@H](CN1CCN(C)CC1)O2 [Example 45, (7R,16R)-19,23-dichloro-10-({2-[(4S)-4-({[(2S)-1,4-dioxan-2-yl]methoxy}methyl)-4-fluorocyclohex-1-en-1-yl]pyrimidin-4-yl}methoxy)-1-(4-fluorophenyl)-20,22-dimethyl-16-[(4-methylpiperazin-1-yl)methyl]-7,8,15,16-tetrahydro-18,21-etheno-13,9-(metheno)-6,14,17-trioxa-2-thia-3,5-diazacyclononadeca[1,2,3-cd]indene-7-carboxylic acid] | 0.16 | 0.012 | 0.000249 | 0.000258
7 | Cc1c(Cl)c2c(Cl)c(C)c1-c1c(C3=CCCC3)sc3ncnc(c13)O[C@@H](C(=O)O)Cc1cc(ccc1OCc1ccnc(C3=CC[C@](F)(COC[C@@H]4COCCO4)CC3)n1)OC[C@@H](CN1CCN(C)CC1)O2 [Example 35, (7R,16R)-19,23-dichloro-1-(cyclopent-1-en-1-yl)-10-({2-[(4S)-4-({[(2S)-1,4-dioxan-2-yl]methoxy}methyl)-4-fluorocyclohex-1-en-1-yl]pyrimidin-4-yl}methoxy)-20,22-dimethyl-16-[(4-methylpiperazin-1-yl)methyl]-7,8,15,16-tetrahydro-18,21-etheno-13,9-(metheno)-6,14,17-trioxa-2-thia-3,5-diazacyclononadeca[1,2,3-cd]indene-7-carboxylic acid] | 0.52 | 0.027 | 0.000261 | 0.00111
8 | Cc1c(Cl)c2c(Cl)c(C)c1-c1c(-c3ccc(F)cc3)sc3ncnc(c13)O[C@@H](C(=O)O)Cc1cc(ccc1OCc1ccnc([C@H]3CC[C@@](F)(COC[C@@H]4COCCO4)CC3)n1)OC[C@@H](CN1CCN(C)CC1)O2 [Example 46, (7R,16R)-19,23-dichloro-10-({2-[(1S,4r)-4-({[(2S)-1,4-dioxan-2-yl]methoxy}methyl)-4-fluorocyclohexyl]pyrimidin-4-yl}methoxy)-1-(4-fluorophenyl)-20,22-dimethyl-16-[(4-methylpiperazin-1-yl)methyl]-7,8,15,16-tetrahydro-18,21-etheno-13,9-(metheno)-6,14,17-trioxa-2-thia-3,5-diazacyclononadeca[1,2,3-cd]indene-7-carboxylic acid] | 0.24 | 0.022 | 0.000579 | 0.000418
9 | Cc1c(Cl)c2c(Cl)c(C)c1-c1c(-c3ccc(F)cc3)sc3ncnc(c13)O[C@@H](C(=O)O)Cc1cc(ccc1OCc1ccnc(OC[C@H]3COCCO3)n1)OC[C@@H](CN1CCN(C)CC1)O2 [Example 25, (7R,16R)-19,23-dichloro-10-[(2-{[(2R)-1,4-dioxan-2-yl]methoxy}pyrimidin-4-yl)methoxy]-1-(4-fluorophenyl)-20,22-dimethyl-16-[(4-methylpiperazin-1-yl)methyl]-7,8,15,16-tetrahydro-18,21-etheno-9,13-(metheno)-6,14,17-trioxa-2-thia-3,5-diazacyclononadeca[1,2,3-cd]indene-7-carboxylic acid] | 0.19 | 0.003 | 0.000629 | 0.00188
10 | Cc1c(Cl)c2c(Cl)c(C)c1-c1c(C3=CCCC3)sc3ncnc(c13)O[C@@H](C(=O)O)Cc1cc(ccc1OCc1ccnc(C3=CC[C@@](F)(COC[C@@H]4COCCO4)CC3)n1)OC[C@@H](CN1CCN(C)CC1)O2 [Example 38, (7R,16R)-19,23-dichloro-1-(cyclopent-1-en-1-yl)-10-({2-[(4R)-4-({[(2S)-1,4-dioxan-2-yl]methoxy}methyl)-4-fluorocyclohex-1-en-1-yl]pyrimidin-4-yl}methoxy)-20,22-dimethyl-16-[(4-methylpiperazin-1-yl)methyl]-7,8,15,16-tetrahydro-18,21-etheno-13,9-(metheno)-6,14,17-trioxa-2-thia-3,5-diazacyclononadeca[1,2,3-cd]indene-7-carboxylic acid] | 0.63 | 0.036 | 0.000267 | 0.000748
11 | Cc1c(Cl)c2c(Cl)c(C)c1-c1c(-c3ccc(F)cc3)sc3ncnc(c13)O[C@@H](C(=O)O)Cc1cc(ccc1OCc1cc(-c3ccc(OC[C@H]4COCCO4)cc3)ncn1)OC[C@@H](CN1CCN(C)CC1)O2 [Example 31, (7R,16R)-19,23-dichloro-10-{[6-(4-{[(2R)-1,4-dioxan-2-yl]methoxy}phenyl)pyrimidin-4-yl]methoxy}-1-(4-fluorophenyl)-20,22-dimethyl-16-[(4-methylpiperazin-1-yl)methyl]-7,8,15,16-tetrahydro-18,21-etheno-13,9-(metheno)-6,14,17-trioxa-2-thia-3,5-diazacyclononadeca[1,2,3-cd]indene-7-carboxylic acid] | 5.27 | 0.373 | 0.00419 | 0.011
